Reference: ChEMBL document CHEMBL3390836, “Mannich- and LedererManasse-based analogues of the natural product S-(+)-curcuphenol as cancer proliferation and migration inhibitors” (Medchemcomm, 2012)
pIC50: −log10 of the molar value.

Key:
M14 = assay: Cytotoxicity against human M14 cells assessed as cell growth at 10 uM after 48 hrs by SRB assay relative to control; type: functional; conditions: M14, 48 h, read-out: Activity
IGROV-1 = assay: Cytotoxicity against human IGROV1 cells assessed as cell growth at 10 uM after 48 hrs by SRB assay relative to control; type: functional; conditions: IGROV-1, 48 h, read-out: Activity
MDA-MB-231 [1] = assay: Antimigratory activity against human MDA-MB-231 cells after 24 hrs by wound-healing assay; type: functional, cell-based; conditions: MDA-MB-231, 24 h
CCRF-CEM = assay: Cytotoxicity against human CCRF-CEM cells assessed as cell growth at 10 uM after 48 hrs by SRB assay relative to control; type: functional; conditions: read-out: Activity
MCF7 [2] = assay: Cytotoxicity against human MCF7 cells assessed as cell growth at 10 uM after 48 hrs by SRB assay relative to control; type: functional; conditions: MCF7, 48 h, read-out: Activity
NCI-H23 = assay: Cytotoxicity against human NCI-H23 cells assessed as cell growth at 10 uM after 48 hrs by SRB assay relative to control; type: functional; conditions: NCI-H23, 48 h, read-out: Activity
[3] = Cytotoxicity against human EKVX cells assessed as cell growth at 10 uM after 48 hrs by SRB assay relative to control; type: functional; conditions: read-out: Activity
SF-539 = assay: Cytotoxicity against human SF539 cells assessed as cell growth at 10 uM after 48 hrs by SRB assay relative to control; type: functional; conditions: SF-539, 48 h, read-out: Activity
HT-29 = assay: Cytotoxicity against human HT-29 cells assessed as cell growth at 10 uM after 48 hrs by SRB assay relative to control; type: functional; conditions: HT-29, 48 h, read-out: Activity
SR = assay: Cytotoxicity against human SR cells assessed as cell growth at 10 uM after 48 hrs by SRB assay relative to control; type: functional; conditions: read-out: Activity
[4] = Cytotoxicity against human PC3 cells assessed as cell growth at 10 uM after 48 hrs by SRB assay relative to control; type: functional; conditions: PC-3, 48 h, read-out: Activity
[5] = Cytotoxicity against human OVCAR8 cells assessed as cell growth at 10 uM after 48 hrs by SRB assay relative to control; type: functional; conditions: OVCAR-8, 48 h, read-out: Activity
DU-145 = assay: Cytotoxicity against human DU145 cells assessed as cell growth at 10 uM after 48 hrs by SRB assay relative to control; type: functional; conditions: DU-145, 48 h, read-out: Activity
[6] = Cytotoxicity against human UO31 cells assessed as cell growth at 10 uM after 48 hrs by SRB assay relative to control; type: functional; conditions: UO-31, 48 h, read-out: Activity
ACHN = assay: Cytotoxicity against human ACHN cells assessed as cell growth at 10 uM after 48 hrs by SRB assay relative to control; type: functional; conditions: read-out: Activity
MOLT-4 = assay: Cytotoxicity against human MOLT4 cells assessed as cell growth at 10 uM after 48 hrs by SRB assay relative to control; type: functional; conditions: MOLT-4, 48 h, read-out: Activity
SF-268 = assay: Cytotoxicity against human SF268 cells assessed as cell growth at 10 uM after 48 hrs by SRB assay relative to control; type: functional; conditions: SF-268, 48 h, read-out: Activity
[7] = Cytotoxicity against human OVCAR5 cells assessed as cell growth at 10 uM after 48 hrs by SRB assay relative to control; type: functional; conditions: OVCAR-5, 48 h, read-out: Activity
A549 = assay: Cytotoxicity against human A549 cells assessed as cell growth at 10 uM after 48 hrs by SRB assay relative to control; type: functional; conditions: A549, 48 h, read-out: Activity
KM12 = assay: Cytotoxicity against human KM12 cells assessed as cell growth at 10 uM after 48 hrs by SRB assay relative to control; type: functional; conditions: KM12, 48 h, read-out: Activity
RPMI-8226 = assay: Cytotoxicity against human RPMI8226 cells assessed as cell growth at 10 uM after 48 hrs by SRB assay relative to control; type: functional; conditions: RPMI-8226, 48 h, read-out: Activity
MCF7 [8] = assay: Growth inhibition of human MCF7 cells after 72 hrs by MTT assay; type: functional, cell-based; conditions: MCF7, 72 h
[9] = Cytotoxicity against human UACC257 cells assessed as cell growth at 10 uM after 48 hrs by SRB assay relative to control; type: functional; conditions: UACC-257, 48 h, read-out: Activity
MDA-MB-231 [10] = assay: Cytotoxicity against human MDA-MB-231 cells assessed as growth inhibition after 24 hrs by MTT assay; type: cell-based; conditions: MDA-MB-231, 24 h
NCI-H522 = assay: Cytotoxicity against human NCI-H522 cells assessed as cell growth at 10 uM after 48 hrs by SRB assay relative to control; type: functional; conditions: NCI-H522, 48 h, read-out: Activity
SF-295 = assay: Cytotoxicity against human SF295 cells assessed as cell growth at 10 uM after 48 hrs by SRB assay relative to control; type: functional; conditions: SF-295, 48 h, read-out: Activity
Malme-3M = assay: Cytotoxicity against human MALME-3M cells assessed as cell growth at 10 uM after 48 hrs by SRB assay relative to control; type: functional; conditions: read-out: Activity
BT-549 = assay: Cytotoxicity against human BT549 cells assessed as cell growth at 10 uM after 48 hrs by SRB assay relative to control; type: functional; conditions: BT-549, 48 h, read-out: Activity
HOP-92 = assay: Cytotoxicity against human HOP92 cells assessed as cell growth at 10 uM after 48 hrs by SRB assay relative to control; type: functional; conditions: HOP-92, 48 h, read-out: Activity

Row | Compound | growth at 10 µM (M14) [%] | growth at 10 µM (IGROV-1) [%] | pIC50 (MDA-MB-231 [1]) | growth at 10 µM (CCRF-CEM) [%] | growth at 10 µM (MCF7 [2]) [%] | growth at 10 µM (NCI-H23) [%] | growth at 10 µM [3] [%] | growth at 10 µM (SF-539) [%] | growth at 10 µM (HT-29) [%] | growth at 10 µM [4] [%] | growth at 10 µM [5] [%] | growth at 10 µM [6] [%] | growth at 10 µM (ACHN) [%] | growth at 10 µM (MOLT-4) [%] | growth at 10 µM [7] [%] | growth at 10 µM (A549) [%] | growth at 10 µM (KM12) [%] | growth at 10 µM (RPMI-8226) [%] | pIC50 (MCF7 [8]) | growth at 10 µM [9] [%] | also measured
1 | COc1ccc(CCNCc2c(C)ccc([C@@H](C)CCC=C(C)C)c2O)cc1OC | 91 | 68.8 | < 4.70 | 80.1 | 85.1 | 74 | 82.3 | 88.9 | 48.9 | 71 | 80.4 | 42.6 | 87.1 | 68.2 | 96.6 | 85.8 | 89.9 | 55.8 | < 4.70 | 78.7 | growth at 10 µM (SR): 53.4%; growth at 10 µM (DU-145): 83.4%; growth at 10 µM (SF-268): 90.7%; pIC50 (MDA-MB-231 [10]): < 4.70; growth at 10 µM (NCI-H522): 75%; growth at 10 µM (SF-295): 87.9%
2 | CC(C)=CCC[C@H](C)c1ccc(C)c(CNCCCCCO)c1O | 94.3 | 91.1 | < 4.70 | 96.5 | 79.4 | 92.5 | 90.5 | 92.1 | 55 | 79.5 | 98 | 54.9 | 97.7 | 83.1 | 99.4 | 91.5 | 97.3 | 85.3 | 5.12 | 93.2 | growth at 10 µM (SR): 84%; growth at 10 µM (Malme-3M): 106%; growth at 10 µM (DU-145): 108%; growth at 10 µM (BT-549): 108%; growth at 10 µM (SF-268): 87.8%; pIC50 (MDA-MB-231 [10]): < 4.70; growth at 10 µM (NCI-H522): 89.2%; growth at 10 µM (SF-295): 108%
3 | CC(C)=CCC[C@H](C)c1ccc(C)c2c1OCN(CCCCC(=O)O)C2 | 92.5 | 108 | 4.52 | 93.2 | 92.5 | 95.1 | 102 | 91.8 | 83.3 | 92.3 | 88.8 | 69.7 | 98.8 | 102 | 90.8 | 101 | 107 | 92.3 | < 4.70 | 89.5 | growth at 10 µM (SR): 105%; growth at 10 µM (Malme-3M): 126%; growth at 10 µM (DU-145): 118%; growth at 10 µM (SF-268): 100%; growth at 10 µM (HOP-92): 83.7%; pIC50 (MDA-MB-231 [10]): < 4.70; growth at 10 µM (NCI-H522): 44.8%; growth at 10 µM (SF-295): 102%
4 | CC(C)=CCC[C@H](C)c1ccc(C)c(CNCCCCC(=O)O)c1O | 113 | 105 | < 4.70 | 97.9 | 101 | 98.8 | 97.9 | 111 | 101 | 98 | 94.1 | 81.9 | 102 | 95.1 | 102 | 95.8 | 102 | 95.1 | < 4.70 | 101 | growth at 10 µM (SR): 85%; growth at 10 µM (DU-145): 110%; growth at 10 µM (BT-549): 111%; growth at 10 µM (SF-268): 105%; pIC50 (MDA-MB-231 [10]): < 4.70; growth at 10 µM (NCI-H522): 95.4%; growth at 10 µM (SF-295): 101%
5 | CC(C)=CCC[C@H](C)c1ccc(C)c(CO)c1O | 103 | 107 | 4.91 | 94.2 | 102 | 92.9 | 103 | 98.4 | 103 | 89.1 | 92.1 | 76.7 | 110 | 91.4 | 110 | 78.5 | 92.1 | 88.8 | < 4.70 | 91.9 | growth at 10 µM (Malme-3M): 110%; growth at 10 µM (BT-549): 91.8%; growth at 10 µM (HOP-92): 65.2%; pIC50 (MDA-MB-231 [10]): < 4.70; growth at 10 µM (NCI-H522): 87.1%; growth at 10 µM (SF-295): 103%
6 | CC(C)=CCC[C@H](C)c1ccc(C)c2c1OCN(CCO)C2 | 90.9 | 66.7 | 4.95 | 87.5 | 83.9 | 81.7 | 97.2 | 88.2 | 68.7 | 76.9 | 86.3 | 42.4 | 90.1 | 101 | 83.7 | 82.4 | 103 | 83.2 | 5.08 | 92.3 | growth at 10 µM (Malme-3M): 89.5%; growth at 10 µM (BT-549): 95.8%; growth at 10 µM (HOP-92): 4.21%; pIC50 (MDA-MB-231 [10]): < 4.70; growth at 10 µM (NCI-H522): 78.1%; growth at 10 µM (SF-295): 98.6%
7 | CC(C)=CCC[C@H](C)c1ccc(C)c(CNCCO)c1O | 101 | 94.9 | < 4.70 | 102 | 105 | 89.1 | 89 | 96.5 | 90.6 | 88.1 | 89.6 | 54.7 | 97.9 | 87.5 | 87.6 | 94.4 | 98.7 | 86.9 | < 4.70 | 81.7 | growth at 10 µM (SR): 75.7%; growth at 10 µM (DU-145): 98.3%; growth at 10 µM (SF-268): 97.8%; pIC50 (MDA-MB-231 [10]): < 4.70; growth at 10 µM (NCI-H522): 81.4%; growth at 10 µM (SF-295): 105%
8 | CC(C)=CCC[C@H](C)c1ccc(C)cc1O | 106 | 97.8 | 4.43 | 105 | 97.8 | 94.9 | 110 | 103 | 103 | 80 | 108 | 83 | 109 | 102 | 99 | 92.6 | 93.8 | 99.9 | < 4.70 | 107 | growth at 10 µM (Malme-3M): 115%; growth at 10 µM (BT-549): 114%; growth at 10 µM (HOP-92): 85%; pIC50 (MDA-MB-231 [10]): < 4.70; growth at 10 µM (NCI-H522): 101%; growth at 10 µM (SF-295): 107%
